The text below walks through data of ChEMBL document CHEMBL3352660, “Design, synthesis and pharmacological evaluation of novel polycyclic heteroarene ethers as PDE10A inhibitors: part II” (Bioorg Med Chem Lett, 2014).

Activity calls are given as the source filed them. The calls are words filed in the database; no cut-off is given here.

The test system of this experiment is Rattus norvegicus. Briefly: Antipsychotic activity in Sprague-Dawley rat conditioned avoidance response model assessed as escape at 10 mg/kg, po measured after 2 hrs relative to vehicle-treated control. More on the design: dose 10 mg/kg. It counts as functional, organism-based.

With `Cn1cc(-c2ccc(Oc3nccnc3-c3ccncc3)cc2)c2ncccc21`, the outcome was Active.
